From US7989634B2, “Melanocortin receptor agonists” (LG Life Sciences Ltd., priority 2003, dated 2011) come the findings set out here.

Structures are written as SMILES. pEC50, pIC50: −log10 of the molar value.

For assay [1], the target named is T1, human melanocortin receptor 4 (MC4R) (Homo sapiens, UniProt P32245).
T1 construct: expressed in transfected cells
Kind of assay: Luciferase functional assay. It counts as cell-based. To be noted: agonistic efficacy against MCR4; functional assay not specified (luciferase or cAMP). The method, then:
Cell lines expressing human melanocortin receptor 4 (MC4R) were dissociated from tissue culture dishes by rinsing with Ca^++, Mg^++ free DPBS, treated with 1× Trypsin/EDTA solution for 1 min at 37° C., and resuspended with DMEM (GIBCO-BRL) supplemented with 10% FBS. The cells were counted and diluted with DMEM supplemented with 10% FBS and 200 ug/ml of Geneticin to 5×10^5 cells/ml. 90 ul of cell suspension was plated onto each well of 96-well black and clear bottom culture plates (Costar). After the incubation for 24 h in the atmosphere of 6% CO2 at 37° C., 10 ul of NDP- -MSH and test compounds diluted in DMSO were added to each well. The final DMSO concentration was 1%. After 4 h of incubation in the atmosphere of 6% CO2 at 37° C., 50 ul of Bright-Glo (Promega) was added to each well. Luciferase activity was measured by using L-Max luminometer (Molecular Device). The amount of luciferase activity induced by treatment with NDP- -MSH was defined as 100% to obtain the relative efficacy of test compounds. The EC0.5 MSH was defined as the concentration of test compounds that results in half maximal activity of NDP- -MSH. The EC50 was defined as the concentration of test compound that results in half maximal activity of its own.

Assay [2] addresses T1, human melanocortin receptor 4 (MC4R). The assay can be described thus: Membrane fraction binding assay (125I-NDP-MSH competition). The following applies: binding affinity against MCR4. On the procedure:
The membrane fraction binding assay was used to identify competitive inhibitors of ^125I-NDP- -MSH binding to cloned human MCRs expressed in HEK cells.
Cell lines expressing human melanocortin receptor 4 (MC4R) were grown in Φ150 mm culture dishes in DMEM (GIBCO-BRL) supplemented with 10% FBS, 200 ug/ml Geneticin (GIBCO-BRL), and antibiotics (penicillin and streptomycin) (GIBCO-BRL) in an atmosphere of 6% CO2 at 37° C. When the cells were fully grown, the cells were washed once with 10 ml of Ca^++, Mg^++ free DPBS. The cells were incubated with 8 ml of Ca^++, Mg^++ free DPBS for 15-30 min at 37° C. until the cells were easily detached by triturating with pipette. The cells were harvested into 50 ml of conical tubes, and spun at 1500 rpm for 5 min. The supernatant was discarded, and the cells were resuspended in 8 ml of Ca^++, Mg^++ free DPBS, and spun at 1500 rpm for 5 min. The supernatant was discarded, and pellets were resuspended in 3 ml of membrane preparation buffer (50 mM Tris, pH 7.2˜7.4, 4 ug/ml Leupeptin; 10 uM Phosphoramidon; 40 ug/ml Bacitracin; 5 ug/ml Aprotinin; 10 mM Pefabloc). The pellets were homogenized with dounce homogenizer (Bellco with type “B” glass pestle) using 10-12 strokes. The homogenate was centrifuged (Beckman XL-100K Ultracentrifuge, Rotor 45 Ti, 50 ml centrifuge tube) at 40,000 rpm (100,000×g) for 30 min at 4° C. The pellets were resuspended in 20 ml of membrane preparation buffer, and protein was determined by BCA assay kit (PIERCE). Aliquots were placed in tubes and stored at −80° C.
Membrane fraction was diluted with membrane binding buffer to make final 600 ug/ml, and 50 ul of membrane fraction containing 30 ug of membrane protein was added onto each well of 96-well assay plate. 25 ul of test compounds or 20 uM unlabelled NDP- -MSH (to make the final concentration at 5 uM) diluted with membrane binding buffer was added onto each well of 96-well assay plate. […] The top was sealed, and the radioactivity was quantitated in a Packard Topcount Microplate Scintillation Counter. […]

By pEC50 is commonly meant −log10 of the EC50, conventionally taken in molar units. Read a high pEC50 as a small EC50. As a reminder, the pIC50 is −log10 of the IC50, conventionally taken in molar units.

T1 sequence (P32245 whole entry): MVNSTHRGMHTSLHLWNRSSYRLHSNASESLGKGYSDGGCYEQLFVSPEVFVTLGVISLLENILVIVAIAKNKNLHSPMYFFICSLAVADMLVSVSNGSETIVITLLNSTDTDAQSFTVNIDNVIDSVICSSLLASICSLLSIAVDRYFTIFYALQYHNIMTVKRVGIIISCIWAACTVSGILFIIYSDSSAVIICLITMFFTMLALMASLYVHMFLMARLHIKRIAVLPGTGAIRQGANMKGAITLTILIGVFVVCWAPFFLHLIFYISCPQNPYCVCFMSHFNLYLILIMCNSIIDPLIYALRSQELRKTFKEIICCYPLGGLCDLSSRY

Molecule `CC(C)C(=O)N(C1CCCCC1)[C@H]1CCN(C(=O)[C@H](N)Cc2ccc(Cl)cc2)C1` [Example 1] showed a pEC50 in assay [1] of 6.30 to 8.30. Also, the pIC50 in assay [2] is 6.30 to 7.00.

The molecule `CC(C)C(=O)N(C1CCCCC1)[C@H]1CCN(C(=O)[C@@H](Cc2ccc(Cl)cc2)NC(=O)[C@H]2CCCN2)C1` [Example 2] gave a pEC50 in assay [1] of 6.30 to 8.30. In assay [2], this molecule showed a negative logarithm of the IC50 (pIC50) of 6.30 to 7.00.

As for `CC(C)C(=O)N(C1CCCCC1)[C@H]1CCN(NC(=O)[C@@H](Cc2ccc(Cl)cc2)NC[C@H]2CCCN2)C1` [Example 3, (2R)-2-{[(2R)-pyrrolidine-2-yl]methyl}amino-N-{(3S)-3-[cyclohexyl(isobutyryl)amino]pyrrolidine-1-yl}-3-(4-chlorophenyl)propionamide 2TFA], the pEC50 in assay [1] is 6.30 to 8.30. Besides, the pIC50 in assay [2] was 6.30 to 7.00.
